Experimental data reported in PubChem BioAssay AID488889 (Sanford-Burnham Center for Chemical Genomics, 2010).

Target: Tyrosine-protein phosphatase non-receptor type 7 (Homo sapiens) (UniProt P35236)
Assay: inhibition of hematopoietic tyrosine phosphatase HePTP – biochemical, set 3, SAR follow-up (AID 488889)
Settings: recombinant HePTP phosphatase activity assay

Chain of Tyrosine-protein phosphatase non-receptor type 7 (Homo sapiens) (P35236 whole entry, looked up): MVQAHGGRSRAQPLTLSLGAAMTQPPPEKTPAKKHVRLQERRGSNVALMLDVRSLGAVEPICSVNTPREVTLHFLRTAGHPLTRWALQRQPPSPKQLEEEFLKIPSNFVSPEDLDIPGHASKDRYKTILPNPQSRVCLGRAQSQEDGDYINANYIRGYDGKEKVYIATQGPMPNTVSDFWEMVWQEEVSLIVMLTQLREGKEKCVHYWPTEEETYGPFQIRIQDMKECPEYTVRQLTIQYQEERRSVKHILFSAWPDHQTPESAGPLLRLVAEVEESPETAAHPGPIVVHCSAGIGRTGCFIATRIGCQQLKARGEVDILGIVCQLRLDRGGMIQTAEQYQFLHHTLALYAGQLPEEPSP

IC50 [µM] | Structure (SMILES)
< 0.195 | O=C(O)COc1ccc(/C=N/NC(=O)c2ccc(-c3csc(Nc4ccc(Cl)cc4)n3)cc2)cc1
10.2 | CCOC(=O)COc1ccc(/C=N/NC(=O)c2ccc(-c3csc(Nc4ccc(Cl)cc4)n3)cc2)cc1
